1 compound from patent publication US20250108051A1, “THERAPEUTIC AGENT FOR CANCER” (TOHOKU UNIVERSITY, priority 2022, published 2025) can be followed below.

The viability is a read-out of living cells in per cent, often relative to untreated cells.

One data set relates to RKO cell line. In words: Annexin V-PI apoptosis assay. The format is cell-based. To be noted: TRE 10 μM, ENC 100 nM, BIN 100 nM, 72 hours, TRE vs DMSO. How it is done: (§1) Thereafter, the cells were collected, washed with PBS, and stained with Annexin V and PI using Annexin V-FITC Apoptosis Detection Kit (Nakalai Tesque). Apoptotic cells were detected using CytoFLEX LX. A proportion of cells positive for Annexin V was calculated as a proportion of apoptotic cells. The above was performed three times as an independent experiment. Student's test was used for a significant difference test.

Data set [1] has as its system HT29 cell line. Kind of data set: Annexin V-PI apoptosis assay. The class given is cell-based. As to conditions: TRE 10 μM, ENC 10 nM, BIN 10 nM, 72 hours, TRE vs DMSO. How it is done: as §1
In a further data set the test system is RKO cells. Kind of data set: Screening of SCADS Inhibitor Kit with dabrafenib + trametinib, cell viability by MTT assay. The class given is cell-based. How it is done: As the SCADS Inhibitor Kit, one provided by the Molecular Profiling Committee of the Grants-in-Aid for Scientific Research “Advanced Animal Model Support (AdAMS)” in the innovation field of the Ministry of Education, Culture, Sports, Science and Technology was used.
The RKO cells were seeded on a 96-well plate with the number of cells of 2.7×10^3 cells/well, and 24 hours later, SCADS Inhibitor Kit 4 ver 2.3 was administered at 500 nM. Two plates treated in the same manner were prepared, and 50 nM of the BRAF inhibitor Dabrafenib and 5 nM of the MEK inhibitor Trametinib were administered to one of the plates. After incubation at 37° C. for 72 hours after the drug administration, cell viability was measured by an MTT assay (described below). The cell viability was evaluated for RKO cells administered with only DMSO.
The MTT (Thiazolyl blue tetrazolium bromide) assay was performed as follows.
RKO cells were seeded on a 96-well plate with the number of cells of 1.5×10^3 cells/well, CO115 cells were seeded on a 96-well plate with the number of cells of 2.5×10^3 cells/well, and HT29 cells and WiDR cells were respectively seeded on 96-well plates with the number of cells of 6×10^3 cells/well. After incubation for about 24 hours until the cell density reached 40% to 60%, the drug was administered. […]
The synergistic effect was evaluated using Combination Index. […]
Background: Tetrazolium assays rely on reduction of a dye to a coloured formazan, in cell work by metabolically active cells.

For data set [2], the system named is 8505C (BRAF V600E-mutated thyroid cancer cell line). Kind of data set: MTT assay, encorafenib + binimetinib with ATRA. The class given is cell-based. As to conditions: ATRA 0, 1.0 or 10 μM; encorafenib and binimetinib 0 to 10 μM.
Data set [3] deals with HT29 cell line. Kind of data set: Subcutaneous transplanted tumor mouse model (Test Example 13). The class given is in vivo.
Method: The in vivo antitumor effect and toxicity generated by combined use of a compound acting on a retinoid receptor, a BRAF inhibitor, an MEK inhibitor, and an anti-EGFR antibody, or a BRAF inhibitor and an anti-EGFR antibody were evaluated by a mouse model subcutaneous transplanted with a HT29 cell line.
Female nude mice (BALB/c-nu) were purchased from The Jackson Laboratory Japan, and raised in a specific pathogen-free environment. The cultured HT29 cell line was collected with trypsin, and a culture medium and a Corning Matrigel basement membrane matrix (Corning) were mixed at a volume ratio of 1:1 so as to reach 1×10^7 cells/mL, followed by suspension. Into a left abdominal region of each mouse was subcutaneously implanted 0.1 mL of cell suspension. When tumor volumes reached 150 mm^3 to 200 mm^3, mice were randomly divided into a vehicle group, a TRE single group, an ENC+CET group, a three-drug combination (TRE+ENC+CET) group including TRE and ENC+CET, an ENC+BIN+CET group, or a four-drug combination (TRE+ENC+BIN+CET) group including TRE and ENC+BIN+CET. TRE, ENC, and BIN were dissolved in Corn oil (FUJIFILM Wako Pure Chemical Industries, Ltd.), and further subjected to ultrasonic treatment using Bioruptor UCW-310 (Sonicbio. Co. Ltd.) to prepare a drug solution. ENC, BIN, and TRE were orally administrated by force once a day for 28 days at doses of 5 mg/kg, 1.75 mg/kg, and 10 mg/kg, respectively. […] The tumor size and the body weight were measured every three days from the start of the therapy. […]
Subsequently, in order to evaluate the influence of the combined use of TRE and ENC+BIN+CET or ENC+CET on in vivo tumor proliferation, a Ki-67 labeling index was calculated using a resected tumor at the end of the therapy.
Specifically, tumors were extracted from 4 to 6 mice randomly selected from each therapy group. […] Five fields of view for a central part of the tumor without tumor necrosis were selected, and 500 or more cells in total were counted in each group. The Ki-67 labeling index was calculated as the number of Ki-67 positive cells/the total number of cells.
The subject of a further data set is HT29 cells. Kind of data set: Xenograft mouse model (Test Example 5), tumor volume and body weight. The format is in vivo. As to conditions: nude mice, ATRA 10 mg/kg oral daily for 21 days. The method, then:
As an in vivo test, the therapeutic agent for cancer according to the embodiment was administered to a mouse, and the antitumor effect was verified based on a change in tumor size (volume). Xenograft mouse model was prepared as follows. Female nude mice (BALB/c-nu) were purchased from Charles River Laboratories Japan (Yokohama, Japan) and raised in a specific pathogen-free environment. The above-described HT29 cells cultured were collected with trypsin, and suspended in a mixed solution of a culture medium and a Corning Matrigel basement membrane matrix (Corning, NY, USA) so as to reach 1×10^7 cells/ml. Into a left abdominal region of each mouse was subcutaneously implanted 0.1 mL of cell suspension. […] Encorafenib was orally administered at a dose of 10 mg/kg daily, and ATRA was orally administered at a dose of 10 mg/kg daily for 21 days. Feeding needles for mice were used for oral administration. Cetuximab was intraperitoneally administered twice a week at a dose of 20 mg/kg. Each solvent was used as the control. The tumor size and the body weight were measured every three days after the start of the therapy, and the volume was estimated using a calculation formula (tumor volume (mm^3)=½× major axis (mm)×[…]). […]

In data set [4] the test system is RKO (BRAF V600E-mutated colorectal cancer cell line). In words: MTT assay, encorafenib + binimetinib with retinoid. To be noted: ATRA 0, 1.0 or 10 μM; encorafenib and binimetinib 0 to 10 μM. The class given is cell-based. The method, then:
(§2) RKO cells were seeded on a 96-well plate with the number of cells of 1.5×10^3 cells/well, CO115 cells were seeded on a 96-well plate with the number of cells of 2.5×10^3 cells/well, and HT29 cells and WiDR cells were respectively seeded on 96-well plates with the number of cells of 6×10^3 cells/well. After incubation for about 24 hours until the cell density reached 40% to 60%, the drug was administered. After incubation at 37° C. for 72 hours, the MTT assay was performed using Cell Counting Kit-8 (Dojindo Laboratories, Kumamoto, Japan). To each well was added 10 μl of Cell Counting Kit-8 solution, the plates were placed in a culture vessel at 5% CO2 and 37° C. for 120 minutes to perform a color reaction, and then the absorbance at 450 nm was measured and evaluated with a microplate reader SpectraMax M2e (Molecular Devices, Sunnyvale, CA, USA). Cells administered with 0.1% DMSO were used as a control. The above was performed three or more times as independent experiments.
(§3) In various kinds of colorectal cancer cell lines, the inhibition effect of a BRAF inhibitor (encorafenib) and an MEK inhibitor (binimetinib) for the viability of cells and the enhancement by ATRA were examined. […] The horizontal axis indicates component concentrations of encorafenib and binimetinib in a range of 0 μM to 10 μM, and the vertical axis indicates the cell viability when 0 μM, 1.0 μM, or 10 μM (each bar graph) of ATRA was administered. As shown in the drawing, encorafenib and binimetinib were used in an equal molar concentration.
(§4) As the compounds for acting and on a retinoid receptor, retinol, tamibarotene, bexarotene among the retinoids were used. As the cell lines, the above-described cell lines including RKO, HT29, and CO115 were used. As the BRAF inhibitor and the MEK inhibitor to be used in combination, a component (EB) obtained by mixing encorafenib and binimetinib in equal amounts was used as in Test Example 2.
(§5) As the compounds for acting on a retinoid receptor, retinol, tamibarotene, and bexarotene among the retinoids were used. As the cell lines, the colorectal cancer cell lines including RKO, HT29, CO115, WiDR, COLO205, and LIM2405 described above were used. As the BRAF inhibitor and the MEK inhibitor to be used in combination, a component (EB) obtained by mixing encorafenib and binimetinib in equal amounts was used as in Test Example 2.

Data set [5] relates to CO115 (BRAF V600E-mutated colorectal cancer cell line). Kind of data set: MTT assay, encorafenib + binimetinib with retinoid. The class given is cell-based. As to conditions: ATRA 0, 1.0 or 10 μM; encorafenib and binimetinib 0 to 10 μM. The method, then: as §2, §3, §4, §5
Data set [6] relates to HT29 (BRAF V600E-mutated colorectal cancer cell line). In words: MTT assay, encorafenib + binimetinib with retinoid. The class given is cell-based. As to conditions: ATRA 0, 1.0 or 10 μM; encorafenib and binimetinib 0 to 10 μM. How it is done:
as §2, §3, §4, §5

Turning to `CC1=C(/C=C/C(C)=C/C=C/C(C)=C/C(=O)O)C(C)(C)CCC1` [ATRA, all-trans retinoic acid], the “apoptotic cell proportion (Annexin V positive)” value in the data set with RKO cell line and with HT29 cell line [1] was “no significant change” in each case. Besides, the proliferation inhibition result with RKO cells (ATRA alone) is listed as “less than 20%”. Moreover, in the data set with RKO cells (Homo sapiens, RKO, 72 hours, kit compound (ATRA) 0.5 μM, DAB 50 nM, TRA 5 nM, relative to DMSO), the viability at 0.5 µM worked out at 101%. For the same compound, the “cell viability with encorafenib and binimetinib as a function of ATRA concentration” value is “the higher the concentration of ATRA is, the lower the cell viability is” in data set [2]; “the higher the concentration of ATRA is, the lower the cell viability is” in data set [4]; “the higher the concentration of ATRA is, the lower the cell viability is” in [5]; “the higher the concentration of ATRA is, the lower the cell viability is” in [6]. Moreover, in the data set on HT29 cell line [3] (28 days after the therapy), the “mouse body weights depending on the presence or absence of TRE” value was “no significant difference”. The compound further registered a tumor volume in the data set with HT29 cell line [3] (28 days from the start of the therapy, ENC 5 mg/kg, BIN 1.75 mg/kg, TRE 10 mg/kg oral once a day, CET 20 mg/kg i.p. twice a week) of 1156 mm^3. The Ki-67 labeling index entry with HT29 cell line [3] (resected tumor at the end of the therapy, TRE vs vehicle, combinations vs same group without TRE) is on record as “No significant difference”. Further, in the data set with HT29 cells, the “side effects (body weight)” value was “does not cause any significant side effects”. Also, in the data set with HT29 cells (encorafenib 10 mg/kg oral daily, cetuximab 20 mg/kg i.p. twice a week), the “tumor volume (tumor size) change” value is listed as “increased with day”.
